Experimental data from patent US20240293344A1, “Unsaturated Hydroxamic Acid Derivatives and Their Use for the Treatment and Prevention of an Ammonia-Associated Disease or Disorder” (Versantis AG, priority 2021, published 2024).

Legend:
bacterial urease = assay: Rat caecum content assay (urease inhibitory activity, ammonia production from urea); format: cell-based, bacteria of rat caecum content; details: for IC50: rat caecum content with urea, 30 min at 37° C., pH 6.8, read-out: IC50, bacterial urease inhibitory activity
Method: To evaluate the inhibitory activity of HAs, the inventors first established an in vitro assay using rat caecum content.
The use of caecum content samples for the initial screening of urease inhibitors allowed to rapidly identify stable and membrane permeable inhibitors that cover a broad spectrum of bacterial ureases present in the gastrointestinal tract.
According to the herein established protocol, rat caecum content provided by the ETH Phenomics center was diluted in 200 mM potassium phosphate monobasic buffer pH 6.8 and centrifuged at 100×g to remove large particles. The supernatant with dispersed bacteria was collected, mixed with urea and then incubated with an increasing range of inhibitor concentrations for 30 min at 37° C. with constant shaking. In this setup initial concentrations of bacteria and urea were adjusted to the values that lead to the production of ammonia at a final concentration of approximately 1000 μM. Bacterial urease converts urea to ammonia, which was quantified by an enzymatic assay (Ammonia assay, Randox Laboratories, UK).
The established assay was then used to evaluate the potency of commercially available HAs as well as synthesized HAs of the present disclosure. As most of the tested HAs have low aqueous solubility, cyclodextrins were used to prepare water-soluble formulations of the compounds. In this study, a stock solution of acetohydroxamic acid (AHA) was prepared in DMSO, and stock solutions of octanohydroxamic acid (OHA) and 2-octynohydroxamic acid (2-octynoHA) were prepared by dissolving them in aqueous solutions of 2-hydroxypropyl-p-cyclodextrin (HPβCD) in 1:2 and 1:4 molar ratios, respectively. The obtained mixtures were sonicated and heated at 37° C. until fully dissolved.
Besides 2-octynoHA, the urease inhibitory activity of other unsaturated alkylated HAs consisting of 8 carbons was assessed. These included 2-octenohydroxamic acid (2-octenoHA), 3-octenohydroxamic acid (3-octenoHA), 3-octynohydroxamic acid (3-octynoHA) and 7-octynohydroxamic acid (7-octynoHA). Prior to assessing potency in the rat caecum content assay, stock solutions of 2-octenoHA and 3-octenoHA were prepared using HPβCD solution (1:4 molar ratio of HA to HPβCD), stock solutions of 3-octynoHA and 7-octynoHA were prepared using mixture of 10% DMSO and HPβCD solution. The 7-octynoHA presented a lower potency than unsaturated alkylated HAs having a double/triple bond at positions 2 or 3.

[1] = system: S. typhimurium strains (TA98, TA100, TA1535, TA1537); assay: Ames test (Ames MPF Penta 1), S. typhimurium strains
From the text: A commercial microplate format test kit (Ames MPF™ Penta 1, Xenometrix, Switzerland) was used for this experiment. The most commonly used strains in the Ames tests, S. typhimurium with point mutations in the histidine operon and E. coli with mutations in the tryptophan operon were utilized as the model systems. The mutagenicity of the three hydroxamic acids was investigated in four S. typhimurium strains (TA98, TA100, TA1535, TA1537) and in the mixture of two E. coli strains (wp2 [pKM101] and wp2 uvrA) with and without metabolic activation (S9 fraction) according to the manufacturer's protocol.
Bacteria were exposed to 6 concentrations of the test compounds, solvent control (DMSO) and positive control substances (concentrations listed in Tables I-II below) for 90 min in the medium containing enough histidine for S. typhimurium or tryptophan for E. coli to support cell growth. After that, the cultures media were diluted with pH indicator solution lacking histidine or tryptophan and aliquoted into 48 wells of a 384-well plate. Within 48 hours, media containing cells that reverted to amino acid prototrophy turned yellow as bacteria metabolism reduced the pH of the media. The number of yellow wells containing revertant colonies was counted for each dose of the test compounds and compared to the solvent control.

Caco-2 cells [2] = details: human, 24 h
Method: (§1) The compounds used were 2-octynoHA, OHA (Tokyo Chemical Industry Co., Ltd.; Japan) and AHA (Sigma-Aldrich, St. Louis, MO) The human colorectal adenocarcinoma cell line Caco-2 was obtained from American Type Culture Collection. The cells were cultured in complete medium containing DMEM (Dulbecco's modified Eagle's medium) high glucose, GlutaMax™, pyruvate (Thermo Fisher Scientific, Waltham, MA) supplemented with 10% fetal bovine serum (Thermo Fisher Scientific, Waltham, MA), 1% penicillin-streptomycin (Thermo Fisher Scientific, Waltham, MA) and 15 mM HEPES (Thermo Fisher Scientific, Waltham, MA). The cells were incubated at 37° C. in a humidified atmosphere with 5% CO2. Caco-2 cells were used in the experiments from passage 50 to 60 and were tested negative for mycoplasma.
(§2) The cytotoxicity of HAs was assessed using Cell Counting Kit-8 (CCK-8, Sigma-Aldrich, St. Louis, MO), a colorimetric assay based on tetrazolium salt WST-8 which is reduced by dehydrogenases in cells to an orange-colored formazan. The absorbance of formazan at 450 nm is directly proportional to the number of living cells.
(§3) In order to test cytotoxicity of HAs, Caco-2 cells were seeded in a 96-well plate at a density of 5×10^3 cell/well and grown for 1 day. Then, cells were treated with an increasing range of inhibitors' concentrations and incubated for another 24 h at 37° C., 5% CO2. […] After incubation, cells were washed with phosphate buffered saline (Thermo Fisher Scientific, Waltham, MA), treated with DMEM without phenol red (Thermo Fisher Scientific, Waltham, MA) containing CCK-8 reagent and incubated for another 2 h at 37° C. in a humidified atmosphere with 5% CO2. The absorbance of medium at 450 nm was measured using Tecan Infinite M200 PRO plate reader. Caco-2 cell viability was calculated as a percentage of the medium control.

Caco-2 cells [3] = assay: Cytotoxicity in Caco-2 cells (CCK-8); details: 10 mM, 24 h
Method: as §1, §2, §3

[4] = system: mixture of E. coli strains (wp2 [pKM101] and wp2 uvrA); assay: Ames test (Ames MPF Penta 1), E. coli strain mixture; format: cell-based; details: with or without metabolic activation (S9)
From the text: A commercial microplate format test kit (Ames MPF™ Penta 1, Xenometrix, Switzerland) was used for this experiment. […] The mutagenicity of the three hydroxamic acids was investigated in four S. typhimurium strains (TA98, TA100, TA1535, TA1537) and in the mixture of two E. coli strains (wp2 [pKM101] and wp2 uvrA) with and without metabolic activation (S9 fraction) according to the manufacturer's protocol.

[5] = system: N-Nitrosodiethylamine induced liver disease in rats; assay: In vivo efficacy in N-nitrosodiethylamine (DEN) induced liver disease in rats, blood ammonia; design: species or system rat; details: 30 mg/kg suspension, gavage twice a day from day 3, n=10
Method: Efficacy of 2-octynoHA was assessed in male Sprague Dawley rats (Beijing Vital River Laboratory Animal Technology Co., Ltd, China) in a model of acute liver disease. The liver damage was induced by reoccurring intraperitoneal injections of N-nitrosodiethylamine (DEN) 60 mg/kg on days 1, 3, 5, and 7.
Four groups of rats were included. The first control group was treated with a solution of HPβCD 270 mg/kg (n=10). The second group was treated with a suspension of rifaximin 30 mg/kg (n=10). The third group was treated with a suspension of rifaximin 60 mg/kg (n=10). The fourth group was treated with 15 mg/kg of 2-octynoHA dissolved in HPβCD solution (1:1 molar ratio of 2-octynoHA to HPβCD) (n=10). All groups received the treatment via gavage twice a day from day 3 to day 8. Blood samples were collected sublingually on days 0, 6 and 8. Blood ammonia level was measured in collected samples using PocketChem™ (Arkray, Japan).

SMILES: C#CCCCCCC(=O)NO [7-octynoHA, 7-octynohydroxamic acid]
- potency compared with unsaturated alkylated HAs having a double/triple bond at positions 2 or 3 (bacterial urease; rat caecum content assay, FIG. 6): lower potency

SMILES: CC(=O)NO [AHA, N-hydroxyacetamide]
- IC50 (bacterial urease): 7.3 mM
- mutagenicity (reverse mutations) ([1]; TA98, TA100 and TA1537 strains at 5 and 10 mM): mutagenic potential was detected
- concentration up to which no cytotoxicity was detected (Caco-2 cells [2]): up to 10 mM

SMILES: CCCCCCCC(=O)NO [OHA, N-hydroxyoctanamide, reference compound]
- Caco-2 cell viability (percentage of the medium control) (Caco-2 cells [3]): no live cells were observed
- mutagenicity (reverse mutations) [4]: not mutagenic
- IC50 (bacterial urease): 0.23 mM
- mutagenicity (reverse mutations) ([1]; TA98, TA100, TA1535, TA1537, with or without metabolic activation (S9)): not mutagenic

SMILES: OO [hydrogen peroxide, reference compound]
- Caco-2 cell viability (percentage of the medium control) (Caco-2 cells [3]): 1.79±6%

SMILES: CO[C@H]1/C=C/O[C@@]2(C)Oc3c(C)c(O)c4c(O)c(c5c(nc6cc(C)ccn65)c4c3C2=O)NC(=O)/C(C)=C\C=C\[C@H](C)[C@H](O)[C@@H](C)[C@@H](O)[C@@H](C)[C@H](OC(C)=O)[C@@H]1C [rifaximin, reference compound]
- blood ammonia level on day 6 [5]: 44 ± 22.4 µM
